Broadly, the IC50 is the concentration that inhibits the measured activity by half.

For this assay, the target named is T1, mTOR (Homo sapiens, UniProt P42345).
T1 construct: FLAG; made in house
T1 sequence (P42345 1362-2549): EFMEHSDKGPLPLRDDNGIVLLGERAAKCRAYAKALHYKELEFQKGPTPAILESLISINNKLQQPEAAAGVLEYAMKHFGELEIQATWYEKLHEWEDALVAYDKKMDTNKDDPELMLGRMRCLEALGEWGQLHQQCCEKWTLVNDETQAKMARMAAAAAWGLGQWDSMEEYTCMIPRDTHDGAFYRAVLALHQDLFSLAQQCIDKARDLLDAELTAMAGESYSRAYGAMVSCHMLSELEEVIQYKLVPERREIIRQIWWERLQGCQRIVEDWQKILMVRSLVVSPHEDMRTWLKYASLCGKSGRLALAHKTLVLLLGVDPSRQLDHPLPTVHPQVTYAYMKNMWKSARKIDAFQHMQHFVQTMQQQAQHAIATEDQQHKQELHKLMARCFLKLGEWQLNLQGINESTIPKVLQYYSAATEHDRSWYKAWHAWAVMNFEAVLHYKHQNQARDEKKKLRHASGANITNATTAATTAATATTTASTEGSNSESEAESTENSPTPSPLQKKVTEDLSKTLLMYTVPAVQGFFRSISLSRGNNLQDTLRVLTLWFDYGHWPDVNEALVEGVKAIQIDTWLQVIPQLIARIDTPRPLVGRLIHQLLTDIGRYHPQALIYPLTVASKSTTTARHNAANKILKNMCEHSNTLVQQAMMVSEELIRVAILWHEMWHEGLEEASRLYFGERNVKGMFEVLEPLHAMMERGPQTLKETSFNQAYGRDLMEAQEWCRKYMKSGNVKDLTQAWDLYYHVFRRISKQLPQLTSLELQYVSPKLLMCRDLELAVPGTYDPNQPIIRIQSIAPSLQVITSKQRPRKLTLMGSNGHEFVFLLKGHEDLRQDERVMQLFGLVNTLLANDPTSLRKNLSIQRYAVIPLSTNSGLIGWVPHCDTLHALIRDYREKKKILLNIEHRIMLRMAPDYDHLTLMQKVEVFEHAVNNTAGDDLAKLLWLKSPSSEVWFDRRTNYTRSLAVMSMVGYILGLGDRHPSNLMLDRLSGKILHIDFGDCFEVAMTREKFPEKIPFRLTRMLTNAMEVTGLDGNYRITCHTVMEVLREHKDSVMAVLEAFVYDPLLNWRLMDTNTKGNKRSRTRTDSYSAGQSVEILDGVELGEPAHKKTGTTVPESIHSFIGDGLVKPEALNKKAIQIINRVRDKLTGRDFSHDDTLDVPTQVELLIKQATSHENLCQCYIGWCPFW
The experiment in a line: In Vitro mTOR Kinase Assay (Echo), Test (a)(ii). It is filed as biochemical. Particulars: table of enzyme assay Test (a)(ii); read-out: Test (a)(ii) IC50. The method in brief: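 FLAG-tagged human mTOR truncation (residues 1362-2549) expressed in HEK293 cells and FLAG-purified. Compounds dispensed acoustically, reaction 2 h at room temperature, stopped with EDTA. Phosphorylation of biotinylated peptide detected by AlphaScreen with anti-p70 S6K (T389) antibody overnight; IC50 reported.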
On to `CNC(=O)Nc1ccc(-c2nc(N3CCOC[C@@H]3C)cc(C3(S(=O)(=O)c4ccc(NC)c(Cl)c4)CC3)n2)cc1` [Example 95h, 1-[4-[4-[1-(3-chloro-4-methylamino-phenyl)sulfonylcyclo-propyl]-6-[(3S)-3-methylmorpho-lin-4-yl]pyrimidin-2-yl]phenyl]-3-methylurea], for which the IC50 amounted to 13 nM. For `C[C@H]1COCCN1c1cc(C2(S(=O)(=O)c3ccc(NCCO)c(Cl)c3)CC2)nc(-c2ccc(NC(=O)NCCO)cc2)n1` [Example 95i, 1-[4-[4-[1-[3-chloro-4-(2-hydroxyethylamino)phenyl]sulfonylcyclopropyl]-6-[(3S)-3-methylmorpho-lin-4-yl]pyrimidin-2-yl]phenyl]-3-(2-hydroxyethyl)urea] the value was 4.79 nM.

Turning to `C[C@H]1COCCN1c1cc(C2(S(=O)(=O)c3ccc(NCCF)c(Cl)c3)CC2)nc(-c2ccc(NC(=O)NCCF)cc2)n1` [Example 95j, 1-[4-[4-[1-[3-chloro-4-(2-fluoroethyl-amino)phenyl]sulfonyl-cyclopropyl]-6-[(3S)-3-methylmorpho-lin-4-yl]pyrimidin-2-yl]phenyl]-3-(2-fluoroethyl)urea], the IC50 was determined as 13.1 nM. With `CCNC(=O)Nc1ccc(-c2nc(N3CCOC[C@@H]3C)cc(C3(S(=O)(=O)c4ccc(NCC)c(Cl)c4)CC3)n2)cc1` [Example 95k, 1-[4-[4-[1-(3-chloro-4-ethylamino-phenyl)sulfonylcyclopro-pyl]-6-[(3S)-3-methylmorpho-lin-4-yl]pyrimidin-2-yl]phenyl]-3-ethylurea] the figure was 27.2 nM; with `CNC(=O)Nc1ccc(-c2nc(N3CCOC[C@@H]3C)cc(C3(S(=O)(=O)c4ccc(C)cc4)CC3)n2)cc1` [Example 95l, 3-methyl-1-[4-[4-[(3S)-3-methylmorpholin-4-yl]-6-[1-(4-methylphenyl)sulfonylcyclopropyl]pyrimidin-2-yl]phenyl]urea], 1.09 nM; with `Cc1ccc(S(=O)(=O)C2(c3cc(N4CCOC[C@@H]4C)nc(-c4ccc(NC(=O)NC5CC5)cc4)n3)CC2)cc1` [Example 95m, 3-cyclopropyl-1-[4-[4-[(3S)-3-methylmorpholin-4-yl]-6-[1-(4-methylphenyl)sulfonylcyclopropyl]pyrimidin-2-yl]phenyl]urea], 2.02 nM. With `Cc1ccc(S(=O)(=O)C2(c3cc(N4CCOC[C@@H]4C)nc(-c4ccc(NC(=O)NCCO)cc4)n3)CC2)cc1` [Example 95n, 3-(2-hydroxyethyl)-1-[4-[4-[(3S)-3-methylmorpholin-4-yl]-6-[1-(4-methylphenyl)sulfonylcyclopropyl]pyrimidin-2-yl]phenyl]urea] the figure was 0.668 nM; with `Cc1ccc(S(=O)(=O)C2(c3cc(N4CCOC[C@@H]4C)nc(-c4ccc(NC(=O)NCCF)cc4)n3)CC2)cc1` [Example 95o, 3-(2-fluoro-ethyl)-1-[4-[4-[(3S)-3-methylmorpholin-4-yl]-6-[1-(4-methylphenyl)sulfonylcyclopropyl]pyrimidin-2-yl]phenyl]urea], 4.73 nM; with `Cc1ccc(S(=O)(=O)C2(c3cc(N4CCOC[C@@H]4C)nc(-c4ccc(NC(=O)NCC(F)F)cc4)n3)CC2)cc1` [Example 95p, 3-(2,2-difluoroethyl)-1-[4-[4-[(3S)-3-methylmorpholin-4-yl]-6-[1-(4-methylphenyl)sulfonylcyclopropyl]pyrimidin-2-yl]phenyl]urea], 5.43 nM.

Regarding `CCNC(=O)Nc1ccc(-c2nc(N3CCOC[C@@H]3C)cc(C3(S(=O)(=O)c4ccc(C)cc4)CC3)n2)cc1` [Example 95q, 1-ethyl-3-[4-[4-[(3S)-3-methylmorpholin-4-yl]-6-[1-(4-methylphenyl)sulfonylcyclopropyl]pyrimidin-2-yl]phenyl]urea], the IC50 came to 1.68 nM.

On to `Cc1ccc(S(=O)(=O)C2(c3cc(N4CCOC[C@@H]4C)nc(-c4ccc(NC(=O)Nc5cnn(C)c5)cc4)n3)CC2)cc1` [Example 95r, 1-[4-[4-[(3S)-3-methylmorpholin-4-yl]-6-[1-(4-methylphenyl)sulfonylcyclopropyl]pyrimidin-2-yl]phenyl]-3-(1-methylpyrazol-4-yl)urea], for which the IC50 stood at 6.31 nM. Take `C[C@H]1COCCN1c1cc(C2(S(=O)(=O)CCCOC(F)F)CC2)nc(-c2ccc(NC(=O)NCCF)cc2)n1` [Example 96a, 1-[4-[4-[1-[3-(difluoromethoxy)propylsulfonyl]cyclopropyl]-6-[(3S)-3-methylmorpholin-4-yl]pyrimidin-2-yl]phenyl]-3-(2-fluoroethyl)urea]: the IC50 stood at 17.7 nM. Take `C[C@H]1COCCN1c1cc(C2(S(=O)(=O)CCCOC(F)F)CC2)nc(-c2ccc(NC(=O)NCC(F)F)cc2)n1` [Example 96b, 3-(2,2-difluoroethyl)-1-[4-[4-[1-[3-(difluoromethoxy)propylsulfonyl]cycloproyl]-6-[(3S)-3-methylmorpholin-4-yl]pyrimidin-2-yl]phenyl]urea]: the IC50 was found to be 26.8 nM. Regarding `CCNC(=O)Nc1ccc(-c2nc(N3CCOC[C@@H]3C)cc(C3(S(=O)(=O)CCCOC(F)F)CC3)n2)cc1` [Example 96c, 1-[4-[4-[1-[3-(difluoromethoxy)propylsulfonyl]cyclopropyl]-6-[(3S)-3-methylmorpholin-4-yl]pyrimidin-2-yl]phenyl]-3-ethylurea], the IC50 is 27.2 nM. For `C[C@H]1COCCN1c1cc(C2(S(=O)(=O)CCCOC(F)F)CC2)nc(-c2ccc(NC(=O)Nc3cnn(C)c3)cc2)n1` [Example 96d, 1-[4-[4-[1-[3-(difluoromethoxy)propylsulfonyl]cyclopropyl]-6-[(3S)-3-methylmorpholin-4-yl]pyrimidin-2-yl]phenyl]-3-(1-methylpyrazol-4-yl)urea] the value was 20.9 nM. Turning to `C[C@H]1COCCN1c1cc(C2(S(=O)(=O)CCCOC(F)F)CC2)nc(-c2ccc(NC(=O)NC3CC3)cc2)n1` [Example 96e, 3-cyclopropyl-1-[4-[4-[1-[3-(difluoromethoxy)propylsulfonyl]cyclopropyl]-6-[(3S)-3-methylmorpholin-4-yl]pyrimidin-2-yl]phenyl]urea], the IC50 amounted to 8.62 nM.

For the molecule `CNCCS(=O)(=O)C1(c2cc(N3CCOCC3)nc(-c3ccc(NC(=O)NC)cc3)n2)CC1` [Example 97, 3-Methyl-1-[4-[4-[1-(2-methylaminoethylsulfonyl)cyclopropyl]-6-morpholin-4-ylpyrimidin-2-yl]phenyl]urea], the IC50 is 88.2 nM.

As for `Cc1csc(S(=O)(=O)C2(c3cc(N4CCOC[C@@H]4C)nc(-c4ccc(NC(=O)NC(C)(C)CO)cc4)n3)CCC2)n1` [Example 98a, 3-(1-hydroxy-2-methylpropan-2-yl)-1-[4-[4-[(3S)-3-methylmorpholin-4-yl]-6-[1-[(4-methyl-1,3-thiazol-2-yl)sulfonyl]cyclobutyl]pyrimidin-2-yl]phenyl]urea], the IC50 turned out to be 11 nM. For `Cc1csc(S(=O)(=O)C2(c3cc(N4CCOC[C@@H]4C)nc(-c4ccc(NC(=O)N[C@@H](C)CO)cc4)n3)CCC2)n1` [Example 98b, 3-[(2S)-1-hydroxypropan-2-yl]-1-[4-[4-[(3S)-3-methylmorpholin-4-yl]-6-[1-[(4-methyl-1,3-thiazol-2-yl)sulfonyl]cyclobutyl]pyrimidin-2-yl]phenyl]urea] the value was 4.13 nM; for `Cc1csc(S(=O)(=O)C2(c3cc(N4CCOC[C@@H]4C)nc(-c4ccc(NC(=O)NCc5ncc[nH]5)cc4)n3)CCC2)n1` [Example 98c, 3-(1H-imidazol-2-ylmethyl)-1-[4-[4-[(3S)-3-methylmorpholin-4-yl]-6-[1-[(4-methyl-1,3-thiazol-2-yl)sulfonyl]cyclobutyl]pyrimidin-2-yl]phenyl]urea], 26.7 nM. Consider `Cc1csc(S(=O)(=O)C2(c3cc(N4CCOC[C@@H]4C)nc(-c4ccc(NC(=O)NCCCO)cc4)n3)CCC2)n1` [Example 98d, 3-(3-hydroxypropyl)-1-[4-[4-[(3S)-3-methylmorpholin-4-yl]-6-[1-[(4-methyl-1,3-thiazol-2-yl)sulfonyl]cyclobutyl]pyrimidin-2-yl]phenyl]urea], for which the IC50 was 4.41 nM.

For the molecule `Cc1csc(S(=O)(=O)C2(c3cc(N4CCOC[C@@H]4C)nc(-c4ccc(NC(=O)NCCO)cc4)n3)CCC2)n1` [Example 98e, 3-(2-hydroxyethyl)-1-[4-[4-[(3S)-3-methylmorpholin-4-yl]-6-[1-[(4-methyl-1,3-thiazol-2-yl)sulfonyl]cyclobutyl]pyrimidin-2-yl]phenyl]urea], the 50% inhibitory concentration (IC50) came to 3.35 nM. With `Cc1csc(S(=O)(=O)C2(c3cc(N4CCOC[C@@H]4C)nc(-c4ccc(NC(=O)N[C@H](C)CO)cc4)n3)CCC2)n1` [Example 98f, 3-[(2R)-1-hydroxypropan-2-yl]-1-[4-[4-[(3S)-3-methylmorpholin-4-yl]-6-[1-[(4-methyl-1,3-thiazol-2-yl)sulfonyl]cyclobutyl]pyrimidin-2-yl]phenyl]urea] the figure was 2.29 nM; with `C[C@H]1COCCN1c1cc(C2(S(=O)(=O)c3nccs3)CCC2)nc(-c2ccc(NC(=O)NC(C)(C)CO)cc2)n1` [Example 98g, 3-(1-hydroxy-2-methylpropan-2-yl)-1-[4-[4-[(3S)-3-methylmorpholin-4-yl]-6-[1-(1,3-thiazol-2-ylsulfonyl)cyclobutyl]pyrimidin-2-yl]phenyl]urea], 12.7 nM; with `C[C@@H](CO)NC(=O)Nc1ccc(-c2nc(N3CCOC[C@@H]3C)cc(C3(S(=O)(=O)c4nccs4)CCC3)n2)cc1` [Example 98h, 3-[(2S)-1-hydroxypropan-2-yl]-1-[4-[4-[(3S)-3-methylmorpholin-4-yl]-6-[1-(1,3-thiazol-2-ylsulfonyl)cyclobutyl]pyrimidin-2-yl]phenyl]urea], 3.62 nM. With `C[C@H]1COCCN1c1cc(C2(S(=O)(=O)c3nccs3)CCC2)nc(-c2ccc(NC(=O)NCc3ncc[nH]3)cc2)n1` [Example 98i, 3-(1H-imidazol-2-ylmethyl)-1-[4-[4-[(3S)-3-methylmorpholin-4-yl]-6-[1-(1,3-thiazol-2-ylsulfonyl)cyclobutyl]pyrimidin-2-yl]phenyl]urea] the figure was 28.5 nM.
